According to ChEMBL document CHEMBL1201862, “PubChem BioAssay data set” (2004):
Active and inactive are the calls of the source.

Key:
Protein skinhead-1 = molecular target: T1, Protein skinhead-1 (Caenorhabditis elegans, UniProt P34707); format: functional
T1 sequence (P34707 whole entry): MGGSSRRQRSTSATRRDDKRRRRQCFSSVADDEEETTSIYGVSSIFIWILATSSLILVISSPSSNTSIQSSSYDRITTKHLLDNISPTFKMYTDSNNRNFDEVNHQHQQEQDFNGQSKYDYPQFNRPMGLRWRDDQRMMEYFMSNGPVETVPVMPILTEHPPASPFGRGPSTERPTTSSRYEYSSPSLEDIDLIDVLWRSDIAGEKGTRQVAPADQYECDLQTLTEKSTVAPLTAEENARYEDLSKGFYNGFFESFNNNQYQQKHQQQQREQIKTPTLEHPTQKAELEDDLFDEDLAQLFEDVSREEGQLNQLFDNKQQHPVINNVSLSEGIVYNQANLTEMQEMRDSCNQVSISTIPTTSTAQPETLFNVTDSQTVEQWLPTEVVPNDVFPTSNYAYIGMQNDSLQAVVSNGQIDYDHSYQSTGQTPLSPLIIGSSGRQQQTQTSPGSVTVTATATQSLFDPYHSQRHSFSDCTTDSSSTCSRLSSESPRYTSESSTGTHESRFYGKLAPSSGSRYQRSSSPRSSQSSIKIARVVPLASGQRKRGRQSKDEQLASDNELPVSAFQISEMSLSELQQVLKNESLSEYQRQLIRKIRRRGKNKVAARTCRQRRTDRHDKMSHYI

[1] = molecular target: T2, Polyadenylate-binding protein 1 (Homo sapiens, UniProt P11940); experiment: PABP1 MLLE–PAM2 interaction inhibitors, dose response, miRNA deadenylation inhibitor project, biochemical, fluorescence polarization, Cy5-PAM2 peptide, secondary (AID 602260); format: functional; conditions: read-out: IC50_Mean
T2 sequence (P11940 whole entry): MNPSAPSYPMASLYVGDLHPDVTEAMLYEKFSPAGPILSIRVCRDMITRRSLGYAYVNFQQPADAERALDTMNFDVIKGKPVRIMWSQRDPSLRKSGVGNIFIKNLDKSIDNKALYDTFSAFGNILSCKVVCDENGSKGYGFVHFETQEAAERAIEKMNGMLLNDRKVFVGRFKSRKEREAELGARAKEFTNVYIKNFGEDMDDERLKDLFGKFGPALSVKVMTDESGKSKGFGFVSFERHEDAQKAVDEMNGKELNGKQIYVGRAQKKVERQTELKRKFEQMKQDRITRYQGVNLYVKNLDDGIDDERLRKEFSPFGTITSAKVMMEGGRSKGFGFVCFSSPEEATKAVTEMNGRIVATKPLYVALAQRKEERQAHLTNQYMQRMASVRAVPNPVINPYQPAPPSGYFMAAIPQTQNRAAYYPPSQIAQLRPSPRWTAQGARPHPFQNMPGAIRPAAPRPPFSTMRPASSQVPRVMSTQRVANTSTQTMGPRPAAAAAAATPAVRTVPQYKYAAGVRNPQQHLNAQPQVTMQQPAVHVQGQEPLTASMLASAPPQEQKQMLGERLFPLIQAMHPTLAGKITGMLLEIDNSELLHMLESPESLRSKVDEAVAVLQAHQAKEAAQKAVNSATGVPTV

[2] = molecular target: T2, Polyadenylate-binding protein 1; experiment: PABP1 MLLE–PAM2 binding inhibitor potency, dose response, biochemical, fluorescence polarization, FITC-PAM2 peptide (AID 602259); format: functional; conditions: read-out: IC50_Mean
[3] = molecular target: Induced myeloid leukemia cell differentiation protein Mcl-1 (Homo sapiens, UniProt Q07820); format: functional
Induced myeloid leukemia cell differentiation protein Mcl-1, sequence (Q07820 whole entry): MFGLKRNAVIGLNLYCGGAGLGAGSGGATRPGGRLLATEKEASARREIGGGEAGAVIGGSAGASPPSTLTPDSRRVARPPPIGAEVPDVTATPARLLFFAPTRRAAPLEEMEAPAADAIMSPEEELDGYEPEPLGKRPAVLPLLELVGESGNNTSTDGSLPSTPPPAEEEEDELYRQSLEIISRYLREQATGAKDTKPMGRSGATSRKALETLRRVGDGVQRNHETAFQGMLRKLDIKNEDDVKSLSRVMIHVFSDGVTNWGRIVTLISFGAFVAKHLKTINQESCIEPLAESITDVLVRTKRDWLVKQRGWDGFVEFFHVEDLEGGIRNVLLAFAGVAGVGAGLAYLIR

[4] = A549 cell cytotoxicity, dose response, cytotoxicity control, plate reader, cherry-pick, antagonist series (AID 743412); format: functional, cell-based
[5] = HepG2 cell cytotoxicity, dose response, cytotoxicity control, plate reader, cherry-pick, antagonist series (AID 743416); format: functional, cell-based
[6] = LGR2 antagonists, dose response, cell-based, HEK293, CRE-luciferase reporter, cherry pick, set 2 (AID 743343); format: functional;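 also: transfected cells were stimulated with diluted bursicon conditioned medium after compound addition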
[7] = MC4R antagonists, dose response, counter-screen for LGR2 antagonist project, cell-based, plate reader, cherry pick (AID 743444); format: functional;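 also: transfected HEK 293 cells stimulated with alpha-MSH peptide; potency of inhibitors of the alpha-MSH evoked signal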
[8] = HEK293 cell cytotoxicity, dose response, cytotoxicity control, plate reader, cherry-picked samples (AID 743446); format: functional, cell-based
[9] = inhibitors of HIV Env-driven cell fusion, dose response, cherry-pick (AID 652057); format: functional, cell-based
[10] = ZM109 Env clade C HIV-1 fusion inhibitors, dose response, HeLa effector, CEM target cells, luciferase, cherry-pick (AID 652058); format: functional, cell-based
[11] = inhibitors of clade B AD8 Env fusion, dose response, cell-based, cherry-pick (AID 652062); format: functional;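 also: luciferase signal from cell-cell fusion driven by HIV-1 clade B AD8 Env; potency is for inhibitors of fusion seen as a drop in luminescence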
Aminopeptidase N = molecular target: T3, Aminopeptidase N (Plasmodium falciparum FcB1/Columbia, UniProt O96935); experiment: P. falciparum M1AAP inhibitors, biochemical, fluorogenic H-Leu-NHMec substrate, 1536-well (AID 1445); design: species or system Plasmodium falciparum 3D7, 3D7
T3 sequence (O96935 whole entry): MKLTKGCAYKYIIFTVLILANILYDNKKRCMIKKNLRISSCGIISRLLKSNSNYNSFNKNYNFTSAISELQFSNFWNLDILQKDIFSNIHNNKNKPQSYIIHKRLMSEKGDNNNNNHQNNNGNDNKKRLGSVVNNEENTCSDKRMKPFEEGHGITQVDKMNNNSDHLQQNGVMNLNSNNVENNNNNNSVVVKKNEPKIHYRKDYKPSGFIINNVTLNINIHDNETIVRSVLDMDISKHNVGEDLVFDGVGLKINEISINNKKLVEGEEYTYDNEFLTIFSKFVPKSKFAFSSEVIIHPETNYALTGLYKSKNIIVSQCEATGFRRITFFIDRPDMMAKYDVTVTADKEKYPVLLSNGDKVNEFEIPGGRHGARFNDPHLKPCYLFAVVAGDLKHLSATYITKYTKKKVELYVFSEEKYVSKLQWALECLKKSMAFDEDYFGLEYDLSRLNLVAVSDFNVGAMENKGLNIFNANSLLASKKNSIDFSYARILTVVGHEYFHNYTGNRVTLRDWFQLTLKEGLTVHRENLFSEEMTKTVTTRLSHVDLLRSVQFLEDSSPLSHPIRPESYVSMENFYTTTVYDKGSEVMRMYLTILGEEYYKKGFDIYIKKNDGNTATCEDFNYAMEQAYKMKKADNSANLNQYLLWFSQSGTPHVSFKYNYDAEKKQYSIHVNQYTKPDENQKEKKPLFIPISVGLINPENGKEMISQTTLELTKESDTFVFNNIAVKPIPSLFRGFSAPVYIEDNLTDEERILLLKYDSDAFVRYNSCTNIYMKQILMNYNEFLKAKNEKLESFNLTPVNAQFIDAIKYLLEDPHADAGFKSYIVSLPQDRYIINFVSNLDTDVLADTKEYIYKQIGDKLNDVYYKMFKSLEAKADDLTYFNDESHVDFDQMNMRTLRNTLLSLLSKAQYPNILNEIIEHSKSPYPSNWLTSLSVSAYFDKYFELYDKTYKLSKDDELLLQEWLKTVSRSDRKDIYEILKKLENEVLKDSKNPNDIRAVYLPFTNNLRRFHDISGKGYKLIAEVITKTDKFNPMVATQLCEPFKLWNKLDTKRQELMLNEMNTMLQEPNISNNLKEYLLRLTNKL

[12] = molecular target: Luciferin 4-monooxygenase (Photinus pyralis, UniProt P08659); experiment: firefly luciferase enzyme inhibitors, dose response, biochemical, luminescence (AID 1891)
Luciferin 4-monooxygenase, sequence (P08659 whole entry): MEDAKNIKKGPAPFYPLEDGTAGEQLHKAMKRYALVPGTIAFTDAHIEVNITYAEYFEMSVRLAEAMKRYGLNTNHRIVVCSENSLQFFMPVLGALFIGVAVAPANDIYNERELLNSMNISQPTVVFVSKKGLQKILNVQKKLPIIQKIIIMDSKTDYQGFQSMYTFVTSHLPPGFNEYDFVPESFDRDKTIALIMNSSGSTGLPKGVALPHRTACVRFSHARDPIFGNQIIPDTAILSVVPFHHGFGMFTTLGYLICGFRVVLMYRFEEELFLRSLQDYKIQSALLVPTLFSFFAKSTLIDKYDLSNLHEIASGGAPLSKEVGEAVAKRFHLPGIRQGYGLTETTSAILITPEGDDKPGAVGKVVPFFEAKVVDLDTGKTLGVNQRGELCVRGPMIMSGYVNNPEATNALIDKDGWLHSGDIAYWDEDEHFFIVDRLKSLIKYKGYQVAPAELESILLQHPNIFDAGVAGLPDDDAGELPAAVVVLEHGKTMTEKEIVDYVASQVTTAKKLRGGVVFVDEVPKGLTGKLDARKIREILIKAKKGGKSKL

[13] = Luminescence Cell-Based Dose Confirmation HTS to Identify Inhibitors of Platelet Dense Granule Release. [Related pubchem assays: 1663 (Primary HTS), 1678 (Summary of Project)]; format: functional
[14] = Luminescence Cell-Based Dose Response HTS to Identify Activators of Luciferase Translation or Activity in H4 […] Cells. [Related pubchem assays: 1829 (Project Summary), 1814 (Primary HTS)]; format: functional
H4 = experiment: Luminescence Cell-Based Dose Response HTS to Identify Activators of 5'UTR Stem-Loop Driven Prion Protein mRNA Translation in H4 Neuroglioblastoma Cells. [Related pubchem assays: 1829 (Project Summary), 1814 (Primary HTS)]; format: functional; conditions: Homo sapiens
Large T antigen = Large T antigen (Simian virus 40, UniProt P03070); format: functional, Betapolyomavirus macacae;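 also: Confirmatory-stage PubChem screen for compounds that inhibit SV40 T antigen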
Large T antigen, sequence (P03070 whole entry): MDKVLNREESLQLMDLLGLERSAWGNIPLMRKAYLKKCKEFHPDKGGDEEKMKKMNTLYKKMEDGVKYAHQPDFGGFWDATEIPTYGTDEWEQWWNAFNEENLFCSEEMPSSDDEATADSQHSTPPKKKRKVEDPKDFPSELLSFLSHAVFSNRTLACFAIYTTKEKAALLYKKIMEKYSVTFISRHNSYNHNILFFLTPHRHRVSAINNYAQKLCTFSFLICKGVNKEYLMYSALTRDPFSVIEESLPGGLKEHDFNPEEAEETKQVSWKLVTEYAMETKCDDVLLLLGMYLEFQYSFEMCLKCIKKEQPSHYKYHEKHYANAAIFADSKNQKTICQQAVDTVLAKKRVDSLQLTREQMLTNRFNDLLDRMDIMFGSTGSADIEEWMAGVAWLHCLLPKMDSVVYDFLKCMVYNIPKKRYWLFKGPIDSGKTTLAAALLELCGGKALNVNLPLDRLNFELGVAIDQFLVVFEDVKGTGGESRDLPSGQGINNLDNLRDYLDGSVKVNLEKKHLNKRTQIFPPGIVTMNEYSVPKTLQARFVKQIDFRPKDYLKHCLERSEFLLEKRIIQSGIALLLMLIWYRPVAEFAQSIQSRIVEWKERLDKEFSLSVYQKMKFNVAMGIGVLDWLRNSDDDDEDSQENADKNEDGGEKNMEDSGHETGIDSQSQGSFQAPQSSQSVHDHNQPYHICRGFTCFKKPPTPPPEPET

cells [15] = format: functional, cell-based
cells [16] = format: functional, cell-based; remark: listed apart in the source
[17] = molecular target: Glyceraldehyde-3-phosphate dehydrogenase (Homo sapiens, UniProt P04406)
Glyceraldehyde-3-phosphate dehydrogenase, sequence (P04406 whole entry): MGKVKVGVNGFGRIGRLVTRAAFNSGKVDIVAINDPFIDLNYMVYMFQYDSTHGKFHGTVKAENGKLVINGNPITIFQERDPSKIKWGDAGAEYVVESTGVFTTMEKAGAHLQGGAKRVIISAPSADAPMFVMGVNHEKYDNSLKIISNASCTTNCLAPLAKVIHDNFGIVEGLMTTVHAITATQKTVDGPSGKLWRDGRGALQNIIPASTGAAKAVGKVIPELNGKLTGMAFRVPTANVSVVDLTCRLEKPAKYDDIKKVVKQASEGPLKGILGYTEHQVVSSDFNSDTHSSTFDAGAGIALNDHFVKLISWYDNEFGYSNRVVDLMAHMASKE

[18] = P. falciparum Dd2 growth inhibitors, dose response, SYBR Green, cherry-picked samples (AID 1159567); format: functional, cell-based

Compound: Clc1ccc(-n2nnc(-c3nccs3)n2)cc1Cl
- IC50 (Protein skinhead-1): > 100 µM (inactive)

Compound: O=C(O)CCCCCN1C(=O)C(O)=C(C(=O)/C=C/c2ccccc2)C1c1ccccc1[N+](=O)[O-] (stereo not given)
- IC50 [1]: > 66 µM (inactive)
- IC50 [2]: > 66 µM (inactive)

Compound: O=C(Nc1ccc(Cl)cc1)Nc1nnc(/C=C/c2ccccc2)s1
- IC50 [3]: 5.89 µM (active)

Compound: COc1cccc(/C=C2\CC(C)Cc3c2nc2ccccc2c3C(=O)O)c1OC (stereo not given)
- IC50 (Protein skinhead-1): > 100 µM (inactive)

Compound: Cc1nc2ccccc2nc1OCc1ccccc1
- IC50 (Protein skinhead-1): 18.2 µM (active)

Compound: COc1cccc(-c2ncn(CCc3ccccc3OC)c2CC(C)C)c1
- AC50 [4]: 23.6 µM (active)
- AC50 [5]: 22.3 µM (active)
- AC50 [6]: 23.6 µM (active)
- AC50 [7]: 22.2 µM (active)
- AC50 [8]: > 52 µM (inactive)

Compound: COc1ccc(CNC(=O)N(C)C[C@H]2OCc3ccccc3-c3c(n(C)c4ccccc34)C(=O)N([C@@H](C)CO)C[C@@H]2C)cc1
- AC50 [9]: < 0.26 µM (active)
- AC50 [10]: < 0.26 µM (active)
- AC50 [11]: < 0.26 µM (active)

Compound: CCOC(=O)c1sc(=S)n(-c2cccc(OC)c2)c1N
- IC50 [1]: > 66 µM (inactive)
- IC50 [2]: > 66 µM (inactive)

Compound: Cc1ccc(-n2nnnc2SCC(=O)NC(C(=O)O)(c2ccccc2)c2ccccc2)cc1C
- IC50 (Aminopeptidase N): 29.2 µM (active)

Compound: O=C(/C=C/Nc1ccc(F)cc1F)c1cccs1
- EC50 [12]: 1.09 µM (active)
- EC50 [13]: 4.23 µM (active)
- IC50 (Protein skinhead-1): 73.4 µM (inactive)

Compound: COc1ccc(S(=O)(=O)Nc2ccc3c(c2)CC(=O)N([C@@H](C)CO)C[C@H](C)[C@H](CN(C)S(=O)(=O)c2cccs2)O3)cc1
- AC50 [9]: 7.42 µM (active)
- AC50 [10]: 1.15 µM (active)
- AC50 [11]: 25.1 µM (active)

Compound: Clc1cccc(/C=N/Nc2nc(Cl)nc3ccccc23)c1
- IC50 [3]: 19 µM (not active)

Compound: Cc1ccc2c(c1)NC(=O)c1cccnc1N2
- EC50 [14]: 61.7 µM (active)
- EC50 (H4): > 120 µM (not active)
- IC50 (Large T antigen): 10.2 µM (active)
- IC50 [3]: 10.5 µM (not active)

Compound: Cc1onc(-c2ccccc2)c1NC(=O)N(Cc1ccccc1)C(C)C
- EC50 (cells [15]): > 350 µM (not active)
- EC50 (cells [16]): > 350 µM (not active)

Compound: Cc1ccc(C)c(CSc2ncccc2C(=O)O)c1
- IC50 (Aminopeptidase N): 77.7 µM (active)

Compound: COc1ccc(Nc2nc(C(=O)NCCCN3CCOCC3)cs2)cc1
- IC50 (Protein skinhead-1): > 100 µM (inactive)

Compound: CN(Cc1ccccc1)S(=O)(=O)c1ccc(C(=O)O)o1
- IC50 [17]: > 100 µM (not active)

Compound: Cn1ncc(Br)c1NC(=O)CSc1ccc(Cl)cc1
- EC50 (cells [15]): > 350 µM (not active)
- EC50 (cells [16]): 181 µM (active)

Compound: CC(=O)Nc1ccc(NC(=O)CCC(=O)OCC(=O)c2ccc(F)cc2)cc1
- EC50 (cells [15]): > 350 µM (not active)
- EC50 (cells [16]): > 350 µM (not active)

Compound: Cc1ccc(S(=O)(=O)N2CCN(c3ccccn3)CC2)cc1
- EC50 (cells [15]): > 350 µM (not active)
- EC50 (cells [16]): > 350 µM (not active)

Compound: CCOC(=O)c1[nH]cnc1C(=O)Nc1ccncc1
- IC50 (Aminopeptidase N): 26 µM (active)

Compound: CSc1nc(C)cc(C)c1C#N
- EC50 (cells [15]): > 350 µM (not active)
- EC50 (cells [16]): > 350 µM (not active)

Compound: COc1cccc(N2CCN(C3=C(Cl)C(=O)N(c4ccc(C(F)(F)F)cc4)C3=O)CC2)c1
- IC50 [17]: > 50 µM (inconclusive)

Compound: COc1ccccc1CNC(=O)C1CCN(C(=O)N(C)C)CC1
- IC50 (Protein skinhead-1): > 100 µM (inactive)

Compound: CCOC(=O)c1cnc2ccc(Cl)cc2c1NCCN(C)C
- IC50 [1]: > 66 µM (inactive)
- IC50 [2]: > 66 µM (inactive)

Compound: COc1cc(/C=C/C(=O)Nc2cc(S(=O)(=O)N3CCOCC3)ccc2N2CCCC2)cc(OC)c1OC
- IC50 [1]: > 66 µM (inactive)
- IC50 [2]: > 66 µM (inactive)

Compound: O=C(C[C@@H]1C=C[C@H](NC(=O)c2ccccc2)[C@H](CO)O1)NCc1ccc(Oc2ccccc2)cc1
- AC50 [9]: 24.7 µM (active)
- AC50 [10]: 24.1 µM (active)
- AC50 [11]: 35 µM (active)

Compound: CN(C)CC(=O)N1[C@H](CO)[C@H](c2ccc(-c3cccc(C(=O)N(C)C)c3)cc2)[C@@H]1C#N
- AC50 [18]: 7.56 µM (active)

Compound: Cc1cc(N2C(=O)c3ccc(C(=O)NCc4ccccc4)cc3C2=O)no1
- IC50 (Aminopeptidase N): 18.6 µM (active)

Compound: C=CCN1C(=O)c2ccccc2Sc2ccc(C(=O)N3CCN(C)CC3)cc21
- EC50 (cells [15]): > 350 µM (not active)
- EC50 (cells [16]): > 350 µM (not active)

Compound: Cn1c(N)c(C(=O)COC(=O)c2cc(-c3ccco3)nc3ccccc23)c(=O)n(Cc2ccccc2)c1=O
- IC50 [3]: 2.95 µM (active)

Compound: CN(C)CCCN(C(=O)CCS(=O)(=O)c1ccccc1)c1nc2cc3c(cc2s1)OCO3
- EC50 (cells [15]): > 350 µM (not active)
- EC50 (cells [16]): > 350 µM (not active)

Compound: Cc1ccc(-c2c(C)sc3ncn(CC(=O)N4CCOCC4)c(=O)c23)cc1C
- IC50 (Aminopeptidase N): 12.4 µM (active)

Compound: CS(=O)(=O)c1sc2nc(-c3cccs3)cc(-c3ccccc3)c2c1N
- IC50 (Aminopeptidase N): 81.1 µM (active)

Compound: O=C(Nc1cc2ccccc2oc1=O)c1ccccc1
- AC50 [4]: 31.5 µM (active)
- AC50 [5]: 41 µM (active)
- AC50 [6]: 1.69 µM (active)
- AC50 [7]: 3.08 µM (active)
- AC50 [8]: 37.2 µM (active)
